Key:
[1] = tested on: wild-type Col-0 Arabidopsis; assay: Root growth inhibition by 2,4-D, wild-type Arabidopsis; format: in vivo, Arabidopsis thaliana; settings: Non transgenic (Col-0)
Protocol: Seeds of Arabidopsis ecotype Columbia (Col-0) and GH3 transgenic events were surface sterilized with 70% (v/v) ethanol for 5 minutes and 10% (v/v) bleach for 15 minutes. After being washed three times with distilled water, the seeds were incubated at 4° C. for 4 days. The seeds were then germinated on 1× Murashige and Skoog (MS) medium with a pH of 5.7, 3% (w/v) sucrose, and 0.8% (w/v) agar. After incubation for 3.5 days, the seedlings were transferred to the basal medium containing B5 vitamin, 3% (w/v) sucrose, […] MES (pH 5.7), 1.2% (w/v) agar, and filter sterilized auxin herbicides 2,4-D or dicamba was added to the media at 60° C. The concentrations of 2,4-D were 0 μM, 0.1 μM, 0.5 μM, 0.7 μM, and 1.0 μM. The concentrations of dicmaba were 0 μM, 1.0 μM, 5.0 μM, 7.0 μM, and 10 μM. […]
After 6 days on media with various concentrations of 2,4-D or dicamba, the length of the primary root was measured. […]
Transgenic Arabidopsis lines overexpressing SEQ ID NO:3 were generated and evaluated for 2,4-D herbicide response as described in Example 5. […] Root length of 8 plants per transgenic line was measured and the average was compared to untreated seedlings within the same genetic background.

Soybean seeds = assay: Phytotoxicity evaluation during soybean germination; format: in vivo; settings: 1 μM in germination media, 10 days
Protocol: To evaluate the effect of synthetic auxin conjugates in plants, 2,4-D-Asp, 2,4-D-Glu, dicamba-Asp, and dicamba-Glu were synthesized (Irvine Chemistry Laboratory, Anaheim, Calif.) and tested for auxin effects during soybean germination.
Asp and Glu conjugates of 2,4-D and dicamba were dissolved in a small quantity of Na2CO3 and ethanol, respectively, diluted in ddH2O to obtain 10 mM stock solution, and filter sterilized. Soybean seeds of a Pioneer elite germplasm were sterilized with chlorine gas as following: a) two layers of seeds were placed in a 100×25 mm plastic Petri dish; b) in an exhaust fume hood, seeds were placed into a glass desiccator with a 250 mL beaker containing 100 mL bleach (5% NaOC1) and 3.5 mL 12N HCl was slowly added to the beaker; c) the lid was sealed closed on the desiccator and the seeds sterilized for at least 24 hr.
Sterilized soybean seeds were then imbibed in ddH2O under sterile conditions at 25° C. for 24 hours before germination test. For germination test, 6-8 imbibed seeds were placed on a 100×25 mm deep Petri dish plate containing 50 ml germination media supplemented with or without auxin herbicide conjugates. 1 L seed germination media contains 3.21 g GAMBORG B-5 basal medium (PhytoTech), 20 g sucrose, 5 g tissue culture agar, and is pH adjusted to 5.7. Media was autoclaved at 121° C. for 25 min and cooled to 60° C. before the addition of auxin conjugates. Germination was carried out in a Percival growth chamber at 25° C. under 18 hr light and 6 hr dark cycle at 90 to 150 μE/m2/s and grown for 10 days.

[2] = tested on: Arabidopsis ecotype Col-0 plant; assay: Arabidopsis response to spot infiltrated auxins and conjugates; format: in vivo, Arabidopsis thaliana; settings: 50, 150, and 500 μM; result in words
Protocol: The effect of auxin conjugates was assessed using Arabidoposis (Arabidopsis thialiana) ecotype Col-0 plant. Prior to studies utilizing the auxin conjugates, levels of analytical grade (98%+pure) IAA, 2,4-D and dicamba in solution were applied at various concentrations directly to developmentally similar leaves of 20-23 day old Arabidopsis seedlings by needleless syringe spot infiltration methodology, in order to determine range of auxinic response and severity. Phenotypes were documented relative to control at 1 day post-spot infiltration and subsequently every other day, up to nine days post treatment. Three concentrations were chosen based on reproducibility, and conjugated forms were then studied with 4 or more replicate treatments for each, along with appropriate negative controls (H2O and 10% EtOH).
Examples 9 and 10 utilized a spot infiltration method for the delivery of an herbicide directly to leaves of a plant. The method generally allows for the directed delivery of a variety of agents to a localized area of a plant, e.g. localized region of leaves, for screening or assessment purposes, e.g. to quickly assess the response of a plant to the agent. As used in the foregoing examples, the spot infiltration method was used to introduce specific herbicides or specific conjugates of the herbicides to seedling plant leaves. Following introduction of the herbicide or the appropriate conjugate, plants were observed daily for nine days for characteristics of epinasty, trifoliate leaf curly, chlorosis, and new growth recovery.
Briefly, a solution of the desired agent is prepared of the desired agent, e.g. as described above in Example 10, solutions (5% EtOH) of 1, 2.5 and 5 mM IAA. The solution is then drawn into a 1 mL BD™ slip-tip syringe, bulk, non-sterile syringe (e.g. Becton, Dickinson and Company, Product No. 301025) with 100 μL markings. The desired volume is then applied to the leaf, e.g. as described in Examples 9 and 10, with the tip of the syring against the leaf and positive pressure applied to the syringe plunger. Sufficient pressure is applied in order to infuse the area beneath the syringe opening, but not so much pressure as to cause a visible-to-the-eye puncture or hole to form in the leaf. Some run-off of solution around the syringe opening is expected. In the foregoing examples, two spots were applied to each of two leaves per seedling for soybean plants. […] In soybean, both spots per leaf were at the distal portion of the leaf about 1-2 cm apart. When the method was applied to Arabidopsis, two developmentally intermediate aged leaves were chosen per plant, and one spot infiltration was carried out per leaf.
Generally, for Arabidopsis, the two leaves were chosen from opposite sides of rosette. In general, the spot infiltration method is carried out on younger plants in order to minimize experimental footprint and to maintain developmental uniformity. However, the method is not limited to use on young plants and can be easily applied to older plants as determined by the goals of a particular experiment.

Question: For `O=C(O)COc1ccc(Cl)cc1Cl` [2,4-D, 2,4-dichlorophenoxyacetic acid], which “Percentage of the average root length compared with 0 nM 2,4-D treatment” value ([1]; 10 nM 2,4-D) is on record?
Answer: 77%

Question: And the “Percentage of the average root length compared with 0 nM 2,4-D treatment” value ([1]; 100 nM 2,4-D)?
Answer: 58%

Question: And the “Soybean seed germination and growth” value (Soybean seeds)?
Answer: seed germination was arrested

Question: And the “Phenotype, Arabidopsis” value [2]?
Answer: increased auxinic response ranging from mild to more extreme epinasty

— patent publication US20150351390A1, “COMPOSITIONS AND METHODS FOR AUXIN-ANALOG CONJUGATION” (PIONEER HI-BRED INTERNATIONAL, INC., priority 2012, published 2015)
